The data set has as its target T1, Bombyx mori EcR (VP16 fusion, switch construct CVBE) with 6XEcRE LacZ reporter (Bombyx mori, UniProt P49881).
T1 construct: expressed in transfected cells; host or cells: Human 293 kidney (HEK-293) cells, retrovirally infected, clone Z3
T1 sequence (P49881 86-606 limits assumed): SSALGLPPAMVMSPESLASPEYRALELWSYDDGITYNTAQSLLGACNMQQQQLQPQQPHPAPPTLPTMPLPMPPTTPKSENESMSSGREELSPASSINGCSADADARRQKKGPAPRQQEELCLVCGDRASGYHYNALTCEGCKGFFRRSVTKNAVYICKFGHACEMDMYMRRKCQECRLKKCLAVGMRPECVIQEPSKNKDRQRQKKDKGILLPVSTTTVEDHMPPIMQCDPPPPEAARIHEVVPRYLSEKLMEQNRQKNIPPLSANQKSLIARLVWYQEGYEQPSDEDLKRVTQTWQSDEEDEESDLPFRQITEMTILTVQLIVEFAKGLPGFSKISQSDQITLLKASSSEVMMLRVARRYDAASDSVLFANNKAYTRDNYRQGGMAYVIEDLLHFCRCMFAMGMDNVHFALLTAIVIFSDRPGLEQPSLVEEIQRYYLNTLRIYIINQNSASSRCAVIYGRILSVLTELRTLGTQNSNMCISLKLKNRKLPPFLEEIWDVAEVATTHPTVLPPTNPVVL
T1 sequence (P19793 1-462 partner): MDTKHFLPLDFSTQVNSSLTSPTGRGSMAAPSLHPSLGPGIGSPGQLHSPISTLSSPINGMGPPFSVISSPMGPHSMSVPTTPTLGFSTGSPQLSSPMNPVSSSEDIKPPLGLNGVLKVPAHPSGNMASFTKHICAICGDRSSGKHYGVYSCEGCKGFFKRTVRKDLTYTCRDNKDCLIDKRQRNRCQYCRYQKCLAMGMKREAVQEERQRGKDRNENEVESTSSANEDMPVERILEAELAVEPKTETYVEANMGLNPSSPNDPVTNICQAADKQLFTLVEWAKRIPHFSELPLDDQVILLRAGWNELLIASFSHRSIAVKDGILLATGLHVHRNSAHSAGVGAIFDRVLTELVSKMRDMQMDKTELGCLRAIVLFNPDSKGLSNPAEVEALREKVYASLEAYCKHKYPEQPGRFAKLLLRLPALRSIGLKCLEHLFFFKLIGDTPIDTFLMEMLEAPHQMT
As to the kind of experiment: Z3 assay: β-galactosidase (LacZ) reporter gene fold induction in stably transformed human 293 kidney cells (clone Z3). It counts as cell-based. The method in brief:
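β-Galactosidase read 48 h after dosing by bioluminescent assay; ligand added at 33 μM with DMSO held at 0.03%. The cells are stable 293 clone Z3, expressing a CMV-driven VP16 fusion of Bombyx mori EcR residues 26-546 plus six EcRE copies upstream of lacZ.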
A general note: Reporter assays use an easily measured gene product as a stand-in for the process of interest.

The mark [1] stands for this setting: maximum fold induction at any concentration relative to that of GS-E ligand.
Setting [2] is: read-out: Fold Induction Average, Z3 Assay (33 μM).
[3] abbreviates: read-out: Z3 LC50; average; dose response, three-parameter logistic model.
[4] abbreviates: average; dose response, three-parameter logistic model; read-out: Z3 LC50.
[5] abbreviates: single dose 33 μM; ligand treated / DMSO treated cells; read-out: Fold Induction Average, Z3 Assay (33 μM).
Where [6] appears, read: single dose 33 μM; ligand treated / DMSO treated cells.

Where two headings read alike, the source gives them in different places.

In the case of `COc1cccc(C(=O)C(C)(CC(C)C)NC(=O)c2cccc(OC)c2C)c1` (stereo not shown) [Example 53], the “Z3 Rel Max FI” value under setting [1] is reported as 0.11. Further, the fold induction at 33 µM under setting [2] was determined as 112. For the same compound, the CC50 under setting [3] came out at 23.7 µM.

Take `COc1cccc(C(=O)NC(C)(CC(C)C)C(=O)c2cc(C)cc(C)c2)c1C` (stereo not shown) [Example 55]: the “Z3 Rel Max FI” value under setting [1] was 0.72. The fold induction at 33 µM under setting [2] was determined as 309. For the same compound, the CC50 under setting [3] was 3.4 µM.

In the case of `COc1cccc(C(=O)NC2(C(=O)c3ccc(F)cc3)CCCCC2)c1C` [Example 60], the “Z3 Rel Max FI” value under setting [1] is 0.61. The fold induction at 33 µM under setting [2] was 817. Also, under setting [3], the CC50 is about 6 µM.

Take `COc1cccc(C(=O)NC2(C(=O)c3cc(C)cc(C)c3)CCS(=O)(=O)CC2)c1C` [Example 62]: the “Z3 Rel Max FI” value under setting [1] is 0.10. In addition, under setting [2], the fold induction at 33 µM is 347. Also, under setting [3], the CC50 was about 15 µM.

For `COc1cccc(C(=O)NC(C)(C(=O)c2ccccc2C)C(C)C)c1C` (stereo not shown) [Example 63], under setting [4], the CC50 was found to be 17.9 µM. In addition, the “Z3 Rel Max FI” value under setting [1] stood at 0.26. The fold induction at 33 µM under setting [5] is 453.

Take `COc1ccc(C(=O)C2(NC(=O)c3cccc(OC)c3C)CCCCC2)c(OC)n1` [Example 64]: the “Z3 Rel Max FI” value under setting [1] stood at 0.77. Further, the fold induction at 33 µM under setting [2] was determined as 1160. Besides, the CC50 under setting [3] came out at 2.62 µM.

Take `COc1cc(C(=O)C2(NC(=O)c3cccc(OC)c3C)CCCC2)cc(OC)c1C` [Example 65]: the CC50 under setting [4] came out at 8.84 µM. For the same compound, the “Z3 Rel Max FI” value under setting [1] came to 0.06. Also, under setting [6], the “Fold Induction Average, Z3 Assay (33 μM)” value came out at 151.

For `COc1cc(C(=O)C2(NC(=O)c3cccc(OC)c3C)CCCCC2)cc(OC)c1C` [Example 66], the “Z3 Rel Max FI” value under setting [1] amounted to 0.17. Under setting [2], the fold induction at 33 µM worked out at 341. Under setting [3], the CC50 is 3.33 µM.

As for `COc1cccc(C(=O)NC2(C(=O)c3cc(F)c(F)c(OC)c3)CCCC2)c1C` [Example 67], the “Z3 Rel Max FI” value under setting [1] came out at 0.54. The fold induction at 33 µM under setting [2] is 666. In addition, under setting [3], the CC50 was found to be 4.17 µM.

As to `COc1cccc(C(=O)NC2(C(=O)c3cc(F)c(F)c(OC)c3)CCCCC2)c1C` [Example 68], the “Z3 Rel Max FI” value under setting [1] is reported as 0.70. Moreover, under setting [2], the fold induction at 33 µM stood at 1010. Besides, the CC50 under setting [3] is 2.83 µM.

As to `COc1cccc(C(=O)NC2(C(=O)c3ccccc3)CCCCC2)c1C` [Example 69], the “Z3 Rel Max FI” value under setting [1] was 0.56. Further, the fold induction at 33 µM under setting [2] was found to be 1030. Also, the CC50 under setting [3] was determined as 7.52 µM.

Consider `COc1ccccc1C(=O)C1(NC(=O)c2cccc(OC)c2C)CCCCCC1` [Example 70], for which the CC50 under setting [4] came to 1.94 µM. Under setting [1], the “Z3 Rel Max FI” value worked out at 0.78. In addition, the “Fold Induction Average, Z3 Assay (33 μM)” value under setting [6] was determined as 831.

On to `COc1cccc(C(=O)NC2(C(=O)c3cc(C)cc(C)c3)CCCCCC2)c1C` [Example 71], for which the CC50 under setting [4] was 1.61 µM. The “Z3 Rel Max FI” value under setting [1] worked out at 0.69. The “Fold Induction Average, Z3 Assay (33 μM)” value under setting [6] is 952.

Take `COc1ccccc1C(=O)C(C)(NC(=O)c1cccc(OC)c1C)c1ccc(F)cc1` (stereo not shown) [Example 72]: under setting [6], the “Fold Induction Average, Z3 Assay (33 μM)” value is given as 1.

On to `COc1ccccc1C(=O)C(C)(C)NC(=O)c1cccc(OC)c1C` [Example 74], for which the “Fold Induction Average, Z3 Assay (33 μM)” value under setting [6] is given as 18.

In the case of `COc1cccc(C(=O)NC(C)(C)C(=O)c2cc(C)cc(C)c2)c1C` [Example 75], under setting [4], the CC50 was about 10 µM. Moreover, the “Z3 Rel Max FI” value under setting [1] was determined as 0.17. Further, the “Fold Induction Average, Z3 Assay (33 μM)” value under setting [6] is given as 312.

With `COc1cccc(C(=O)NC(C)(C)C(=O)c2ccccc2)c1C` [Example 76], the CC50 under setting [4] was over 33 µM. For the same compound, the “Z3 Rel Max FI” value under setting [1] amounted to 0.00. Besides, under setting [6], the “Fold Induction Average, Z3 Assay (33 μM)” value is reported as 1.

For the compound `CCC(CC)(NC(=O)c1cccc(OC)c1C)C(=O)c1ccc(C)cc1` [Example 77], the CC50 under setting [4] worked out at 32.2 µM. Also, the “Z3 Rel Max FI” value under setting [1] came out at 0.04.

Consider `CCC(CC)(NC(=O)c1cccc(OC)c1C)C(=O)c1ccccc1` [Example 78], for which the CC50 under setting [4] is over 33 µM. In addition, the “Z3 Rel Max FI” value under setting [1] came out at 0.06.

In the case of `COc1cccc(C(=O)NC2(C(=O)c3ccc(C)cc3)CCCC2)c1C` [Example 79], the CC50 under setting [4] is 34.4 µM. For the same compound, under setting [1], the “Z3 Rel Max FI” value is given as 0.12.

`COc1cccc(C(=O)C(C)(C)NC(=O)c2ccccc2OC)c1` [Example 117]: the “Fold Induction Average, Z3 Assay (33 μM)” value under setting [6] is listed as 1.

Turning to `CCCCC(=O)C1(NC(=O)c2cccc(OC)c2C)CCCCC1` [Example 120], the “Z3 Rel Max FI” value under setting [1] came to 0.36. Besides, the fold induction at 33 µM under setting [2] was 791. Also, the CC50 under setting [3] worked out at 6.33 µM.

Regarding `O=C(NC1(C(=O)c2ccccc2)CCCC1)c1ccccc1` [Example 139], under setting [4], the CC50 is over 33 µM. In addition, the “Z3 Rel Max FI” value under setting [1] is reported as 0.00.

Turning to `COc1cccc(C(=O)NC2(C(=O)c3ccccc3)CCCC2)c1` [Example 141], the CC50 under setting [4] is over 33 µM. The “Z3 Rel Max FI” value under setting [1] worked out at 0.00.

In the case of `CCc1c(OC)cccc1C(=O)NC1(C(=O)c2cc(C)cc(C)c2)CCCCC1` [Example 143], the CC50 under setting [4] was 1.81 µM. In addition, the “Z3 Rel Max FI” value under setting [1] was 0.85.

Consider `CCc1c(OC)cccc1C(=O)NC1(C(=O)c2cc(C)cc(C)c2)CCCC1` [Example 144], for which the CC50 under setting [4] stood at 2.15 µM. Moreover, under setting [1], the “Z3 Rel Max FI” value came to 0.86.

In the case of `COc1cccc(C(=O)NC2(C(=O)c3cc(C)cc(C)c3)CCN(C(C)=O)CC2)c1C` [Example 149], the fold induction at 33 µM under setting [5] turned out to be 2.

Take `CCNC(=O)N1CCC(NC(=O)c2cccc(OC)c2C)(C(=O)c2cc(C)cc(C)c2)CC1` [Example 157]: the “Fold Induction Average, Z3 Assay (33 μM)” value under setting [6] is 2.

The record behind these values is patent publication US8129355B2, “Ketone ligands for modulating the expression of exogenous genes via an ecdysone receptor complex” (priority 2002, dated 2012).
